Consider eight molecules from ChEMBL document CHEMBL1201862, “PubChem BioAssay data set” (2004).

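Tested at 5 concentrations; 48 h exposure; 96-well plates; endpoints linearly interpolated, else capped at highest concentration. The concentration for 50% growth inhibition is given as GI50.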 Calls of active or inactive are those of the source. Cut-off read from the data, not from the text of the source: active = GI50 up to about 1.1 µM and inactive = higher.

Among the test systems are MOLT-4; SW-620; M14; Malme-3M; HOP-92; EKVX; RPMI-8226; HCC 2998; NCI-H226; U-251; NCI-H522; LOX IMVI; UO-31; DMS-273; HOP-62; HCT-15; UACC-62; SK-MEL-5.
Common to all, as to assay: NCI-60 cell line screen, 48 h

Turning to `COc1ccc(OC)c(NC(=O)CCC/C(CC(=O)c2ccc(O)c(OC)c2)=N\Nc2ccc([N+](=O)[O-])cc2)c1`, the GI50 in the test on MOLT-4 is > 100 µM (inactive); with SW-620, > 100 µM (inactive); with M14 it was > 100 µM (inactive); in the test with Malme-3M it was > 100 µM (inactive); in the test with HOP-92 it was 34.3 µM (inactive); with EKVX, 59 µM (inactive). For the same molecule, the GI50 was > 100 µM (inactive) in the test on RPMI-8226; > 100 µM (inactive) in the test with HCC 2998; > 100 µM (inactive) in the test on NCI-H226; 32.1 µM (inactive) in the test on U-251; 45.9 µM (inactive) with NCI-H522; 40.8 µM (inactive) in the test with LOX IMVI. In addition, the GI50 is 83 µM (inactive) with UO-31; 57.3 µM (inactive) with DMS-273; 69.5 µM (inactive) in the test with HOP-62; greater than 100 µM in the test on HCT-15; 48.8 µM (inactive) in the test on UACC-62; > 100 µM (inactive) in the test on SK-MEL-5.
Regarding `CC(=O)NC(CCCCNC(=O)NCCCl)C(=O)NCc1ccccc1` (centres undefined), the GI50 in the test on MOLT-4, with SW-620, with M14, in the test with Malme-3M, in the test with HOP-92 and in the test with EKVX was > 100 µM (inactive) throughout. Besides, the GI50 with RPMI-8226, in the test on HCC 2998, in the test with NCI-H226, with U-251, in the test on NCI-H522 and with UO-31 was > 100 µM (inactive) each time. The GI50 in the test on DMS-273 is > 100 µM (inactive); in the test with HOP-62 it was > 100 µM (inactive); with HCT-15, greater than 100 µM; in the test on UACC-62 it was > 100 µM (inactive); with SK-MEL-5 it was > 100 µM (inactive).
As for `O=C1c2ccccc2N2OC3(N4CCOCC4)CCCC3C12c1ccccc1` (centres undefined), the GI50 is > 100 µM (inactive) in the test on MOLT-4; > 100 µM (inactive) in the test with SW-620; > 100 µM (inactive) with M14; > 100 µM (inactive) with Malme-3M; 53.3 µM (inactive) with HOP-92; > 100 µM (inactive) in the test on EKVX. The GI50 is > 100 µM (inactive) in the test with RPMI-8226; > 100 µM (inactive) with HCC 2998; > 100 µM (inactive) in the test on NCI-H226; > 100 µM (inactive) with U-251; 86.1 µM (inactive) in the test on NCI-H522; > 100 µM (inactive) in the test on UO-31. Further, the GI50 in the test on DMS-273 was > 100 µM (inactive); with HOP-62, > 100 µM (inactive); in the test with HCT-15, greater than 100 µM; with UACC-62 it was 93.1 µM (inactive); in the test with SK-MEL-5, > 100 µM (inactive).
`O=C(Nc1ccc(Br)cc1)C(=O)C(C(=O)c1ccc(Cl)c(Cl)c1)C1OC(=O)c2ccccc21` (centres undefined): the GI50 in the test with MOLT-4 was 10.4 µM (inactive); in the test with SW-620 it was 14 µM (inactive); in the test with M14, 15.4 µM (inactive); in the test on Malme-3M it was 10.4 µM (inactive); in the test with HOP-92 it was 15 µM (inactive); in the test with EKVX it was 28.8 µM (inactive). The GI50 was 39.7 µM (inactive) in the test on RPMI-8226; 14.6 µM (inactive) in the test with HCC 2998; 4.56 µM (inactive) with NCI-H226; 8.97 µM (inactive) in the test on U-251; 18.3 µM (inactive) with NCI-H522; 17.6 µM (inactive) in the test with LOX IMVI. Further, the GI50 in the test on UO-31 is 18.5 µM (inactive); in the test on DMS-273, 19.1 µM (inactive); with HOP-62 it was 15.2 µM (inactive); with HCT-15 it was 20.9 µM; in the test with UACC-62, 13.4 µM (inactive).
Turning to `Oc1nc2cc(Cl)ccc2nc1/C(=N\Nc1ccccc1)C(O)c1ccc(Cl)c(Cl)c1` (centres undefined), the GI50 in the test with MOLT-4, in the test on SW-620, in the test with M14, in the test on Malme-3M, in the test on HOP-92 and in the test with EKVX was > 100 µM (inactive) throughout. For the same molecule, the GI50 in the test on RPMI-8226, in the test with HCC 2998, in the test with NCI-H226, with U-251, in the test on NCI-H522 and in the test with LOX IMVI was > 100 µM (inactive) in each case. The GI50 was > 100 µM (inactive) in the test on UO-31; > 100 µM (inactive) with DMS-273; > 100 µM (inactive) in the test on HOP-62; greater than 100 µM in the test with HCT-15; > 100 µM (inactive) in the test on UACC-62; > 100 µM (inactive) with SK-MEL-5.
With `Nc1ncnc2c1sc(=S)n2-c1ccccc1`, the GI50 is > 100 µM (inactive) with MOLT-4; > 100 µM (inactive) with SW-620; > 100 µM (inactive) in the test with M14; > 100 µM (inactive) in the test with Malme-3M; 40.8 µM (inactive) with HOP-92; > 100 µM (inactive) with EKVX. Moreover, the GI50 in the test on RPMI-8226, in the test with HCC 2998, in the test with NCI-H226, in the test with U-251, with NCI-H522 and in the test with LOX IMVI was > 100 µM (inactive) in each case. Also, the GI50 with UO-31 is 89.3 µM (inactive); with DMS-273, > 100 µM (inactive); in the test with HOP-62, > 100 µM (inactive); with HCT-15, 96.8 µM; in the test with UACC-62, > 100 µM (inactive); with SK-MEL-5, > 100 µM (inactive).
As to `Cc1ccc(SC(C)/C=C/NNC2=NN=C(c3ccccc3)C(c3ccccc3)N2)cc1` (centres undefined), the GI50 is 13.4 µM (inactive) in the test on MOLT-4; 46.5 µM (inactive) with SW-620; 38 µM (inactive) in the test with M14; 49.8 µM (inactive) in the test on Malme-3M; 20 µM (inactive) in the test on HOP-92; 44.8 µM (inactive) in the test with EKVX. The GI50 was 27.9 µM (inactive) in the test on RPMI-8226; 28 µM (inactive) in the test with HCC 2998; 29 µM (inactive) in the test on NCI-H226; 23.1 µM (inactive) in the test on NCI-H522; 25.7 µM (inactive) in the test with LOX IMVI; 12.4 µM (inactive) in the test with UO-31. Also, the GI50 with DMS-273 was 32.5 µM (inactive); with HCT-15, 26.9 µM; in the test on UACC-62, 14.9 µM (inactive); in the test on SK-MEL-5, 14.6 µM (inactive).
In the case of `COc1ccc(C2Oc3c(c(O)cc4c3[C@H](c3ccc(O)cc3O)[C@H](O)C(c3ccc(O)c(O)c3)O4)C[C@@H]2O)cc1O` (some centres undefined), the GI50 in the test on MOLT-4, in the test on SW-620, in the test on M14, in the test on Malme-3M, with HOP-92 and with EKVX was > 100 µM (inactive) in each case. In addition, the GI50 in the test with RPMI-8226, with HCC 2998, with NCI-H226, with U-251, with NCI-H522 and with LOX IMVI was > 100 µM (inactive) throughout. Besides, the GI50 with UO-31 was > 100 µM (inactive); in the test with DMS-273, > 100 µM (inactive); with HOP-62 it was > 100 µM (inactive); with HCT-15 it was greater than 100 µM; in the test on UACC-62, > 100 µM (inactive); with SK-MEL-5, > 100 µM (inactive).
